Experimental findings from PMC9019904, “AD Informer Set: Chemical tools to facilitate Alzheimer's disease drug discovery” (Alzheimer's & Dementia : Translational Research & Clinical …, 2022) are described below.

Test [1] concerns BV2 (mouse microglia) cell line. In words: pHrodo-myelin phagocytosis/cell viability high content imaging assay: viability (cell count, nuclear area, nuclear intensity). The conditions noted are these: BV2 cells, 10 uM compound, 48 hours treatment. The essentials:
(§1)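 Viability was read by high-content imaging as cell count per well and nuclear intensity per cell, in murine BV2 and human HMC3 microglial lines. Cells received a single 10 μM compound dose for 48 h, including 20 h with pHrodo-myelin. Duplicate means are expressed as % of untreated control.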

Test [2] concerns HMC3 (human microglia) cell line. The description is as above. As to conditions: HMC3 cells, 10 uM compound, 48 hours treatment. The essentials:
as §1

The subject of test [3] is BV2 (mouse microglia) cell line. Briefly: pHrodo-myelin phagocytosis/cell viability high content imaging assay: phagocytosis signal. The test is classed as cell-based. The conditions noted are these: BV2 cells, 10 uM compound, 48 hours treatment, pHrodo-myelin final 20 hours. The essentials:
(§2)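 Phagocytosis and cell viability were measured together by high content imaging about 22 hours after pHrodo-myelin addition. Three measurements were extracted from the images. Intensity increase and decrease were taken as early and later apoptosis, respectively.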

The test system of test [4] is HMC3 (human microglia) cell line. Described as above. Format: cell-based. The conditions noted are these: HMC3 cells, 10 uM compound, 48 hours treatment, pHrodo-myelin final 20 hours. The essentials:
as §2

As for `O=C(O)c1cc2nc(-c3ccc(Cl)cc3)cc(C(F)(F)F)n2n1` [UNC10302881A], in test [1], the “1. Cell count (% control)” value is given as 116.3 % control, the “2. Nuclear Area (% Control)” value stood at 105.9 % Control and the “3. Nuclear DNA Intensity (% control)” value was found to be 97.1 % control. Further, in test [2], the “1. Cell count (% control)” value is reported as 123.0 % control, the “2. Nuclear Area (% Control)” value amounted to 99.8 % Control and the “3. Nuclear DNA Intensity (% control)” value is 93.1 % control. The “4. Phagocytosis (% control)” value in test [3] came out at 163.1 % control. Besides, the “4. Phagocytosis (% control)” value in test [4] is reported as 94.6 % control.
For the compound `Cc1ccccc1NC(=O)CN1C(=O)N/C(=C/c2ccccc2OCc2ccc(C(=O)O)cc2)C1=O` [UNC10302882A], in test [1], the “1. Cell count (% control)” value worked out at 94.9 % control, the “2. Nuclear Area (% Control)” value is reported as 109.5 % Control and the “3. Nuclear DNA Intensity (% control)” value amounted to 96.5 % control. Also, in test [2], the “1. Cell count (% control)” value was 155.5 % control, the “2. Nuclear Area (% Control)” value is given as 101.8 % Control and the “3. Nuclear DNA Intensity (% control)” value stood at 92.5 % control. Also, the “4. Phagocytosis (% control)” value in test [3] amounted to 153.2 % control. In test [4], the “4. Phagocytosis (% control)” value worked out at 89.7 % control.
In the case of `O=C(/C=C/c1ccco1)Nc1ncc(Cc2ccccc2)s1` [UNC10302883A], in test [1], the “1. Cell count (% control)” value is on record as 36.1 % control, the “2. Nuclear Area (% Control)” value is listed as 95.3 % Control and the “3. Nuclear DNA Intensity (% control)” value stood at 118.7 % control. For the same compound, in test [2], the “1. Cell count (% control)” value was found to be 163.4 % control, the “2. Nuclear Area (% Control)” value was found to be 60.3 % Control and the “3. Nuclear DNA Intensity (% control)” value is given as 203.4 % control. Besides, the “4. Phagocytosis (% control)” value in test [3] is recorded as 12.7 % control. For the same compound, the “4. Phagocytosis (% control)” value in test [4] was 17.7 % control.
With `Br.CCCc1cc(-c2nc(-c3ccc(C)cc3)cs2)ccn1` [UNC10302889A], the “1. Cell count (% control)” value in test [1] is listed as 52.9 % control; in test [2], 81.4 % control. In addition, the results for the “2. Nuclear Area (% Control)” value in test [1] and in test [2] were 97.6 % Control and 79.1 % Control, respectively. For the same compound, the “3. Nuclear DNA Intensity (% control)” value was 117.7 % control in test [1] and 141.7 % control in test [2]. Besides, the “4. Phagocytosis (% control)” value was determined as 198.0 % control in test [3] and 101.1 % control in test [4].
Take `Nc1ncnc2c1nc(Sc1ccc(Cl)cc1)n2[C@@H]1O[C@@H]2COP(=O)([O-])O[C@H]2[C@H]1O.[Na+]` [UNC10302890A]: in test [1], the “1. Cell count (% control)” value was determined as 107.7 % control, the “2. Nuclear Area (% Control)” value amounted to 106.8 % Control and the “3. Nuclear DNA Intensity (% control)” value was found to be 98.4 % control. In addition, in test [2], the “1. Cell count (% control)” value is reported as 115.9 % control, the “2. Nuclear Area (% Control)” value was 99.4 % Control and the “3. Nuclear DNA Intensity (% control)” value is 99.1 % control. For the same compound, the “4. Phagocytosis (% control)” value in test [3] is given as 104.7 % control. In test [4], the “4. Phagocytosis (% control)” value turned out to be 84.6 % control.
In the case of `CN(C)CCCn1c(N)c(-c2nc3ccccc3[nH]2)c2nc3ccccc3nc21` [UNC10302891A], the “1. Cell count (% control)” value is given as 121.8 % control in test [1] and 137.9 % control in test [2]. In addition, the “2. Nuclear Area (% Control)” value in test [1] came out at 105.7 % Control; in test [2], 99.6 % Control. For the same compound, the “3. Nuclear DNA Intensity (% control)” value in test [1] is recorded as 98.0 % control; in test [2] it was 97.0 % control. In addition, the “4. Phagocytosis (% control)” value in test [3] came out at 109.5 % control; in test [4] it was 44.4 % control.
Take `Cc1cc2c(cc1C(=O)c1ccc(C(=O)O)cc1)C(C)(C)CCC2(C)C` [UNC10302892A]: the “1. Cell count (% control)” value in test [1] is 95.3 % control; in test [2] it was 88.9 % control. The “2. Nuclear Area (% Control)” value in test [1] is 107.4 % Control; in test [2], 102.9 % Control. In addition, the entries for the “3. Nuclear DNA Intensity (% control)” value in test [1] and in test [2] were 95.0 % control and 97.5 % control, respectively. In addition, the entries for the “4. Phagocytosis (% control)” value in test [3] and in test [4] were 90.2 % control and 75.7 % control, respectively.
